Laboratory results from patent US7166598B2, “Piperazine derivatives” (Astellas Pharma Inc., priority 1998, dated 2007).

melting point	Structure (SMILES)
120 to 150 °C	CC1(C)COCCN1CC#CCN1CCN(C(=O)c2cc(C(F)(F)F)cc(C(F)(F)F)c2)[C@H](Cc2ccc(Cl)cc2)C1.Cl.Cl
> 250 °C	Cl.Cl.O=C(c1cc(C(F)(F)F)cc(C(F)(F)F)c1)N1CCN(CCN2CCC(F)(F)CC2)C[C@H]1Cc1ccc2ccccc2c1
150 to 175 °C (dec.)	C[C@@H]1CN(CCN2CCN(C(=O)c3cc(C(F)(F)F)cc(C(F)(F)F)c3)[C@H](Cc3ccc(Cl)cc3)C2)C[C@H](C)O1.Cl.Cl
> 230 °C	COC[C@@H]1CN(CCN2CCN(C(=O)c3cc(C(F)(F)F)cc(S(=O)(=O)C4CCCC4)c3)[C@H](Cc3ccc(Cl)cc3)C2)CCO1.Cl.Cl
152.7 to 157.9 °C	C[C@@H]1CN(CCN2CCN(C(=O)c3cc(-n4cccc4)cc(C(F)(F)F)c3)[C@H](Cc3ccc(Cl)cc3)C2)C[C@H](C)O1.Cl.Cl
102.5 to 110.4 °C	Cc1cc(C(=O)N2CCN(CCN3CCc4ncccc4C3)C[C@H]2Cc2ccc(Cl)cc2)cc(C(F)(F)F)c1.Cl.Cl.Cl
130 to 138 °C	COC[C@@H]1CN(CCN2CCN(C(=O)c3cc(C(F)(F)F)cc(C(F)(F)F)c3)[C@H](Cc3ccc(C(F)(F)F)cc3)C2)C[C@H](COC)O1.Cl.Cl
188 to 200 °C	COc1cc(C(=O)N2CCN(CCN3C[C@@H](C)O[C@@H](C)C3)C[C@H]2Cc2c[nH]c3ccccc23)cc(C(F)(F)F)c1.Cl.Cl
200 to 229 °C	Cl.Cn1cc(CN2CCN(C(=O)c3cc(C(F)(F)F)cc(C(F)(F)F)c3)[C@H](Cc3ccc(C(F)(F)F)cc3)C2)cn1
129 to 133 °C	COC[C@@H]1CN(CCN2CCN(C(=O)c3cc(C(F)(F)F)cc(C(F)(F)F)c3)[C@H](Cc3ccc(F)cc3)C2)CCO1.Cl.Cl
125 to 130 °C	COc1cc(C[C@@H]2CN(CCCc3cccnc3)CCN2C(=O)c2cc(C(F)(F)F)cc(C(F)(F)F)c2)ccc1F.Cl.Cl
143.3 to 146.4 °C	Cl.Cn1cc(CN2CCN(C(=O)c3cc(C(F)(F)F)cc(C(F)(F)F)c3)[C@H](Cc3ccc(F)cc3)C2)cn1
177 to 182 °C	COc1cc(C(=O)N2CCN(CCN3C[C@@H](C)O[C@@H](C)C3)C[C@H]2Cc2ccc(Cl)c(O)c2)cc(C(F)(F)F)c1.Cl.Cl
148 to 151 °C	COC[C@@H]1CN(CCN2CCN(C(=O)c3cc(C)cc(C(F)(F)F)c3)[C@H](Cc3ccc(Cl)cc3)C2)CCO1.Cl.Cl
160 to 170 °C	Cl.Cn1cc(CN2CCN(C(=O)c3cc(C(F)(F)F)cc(C(F)(F)F)c3)[C@H](Cc3ccc(F)c(O)c3)C2)cn1
123 to 149 °C	COCC1(COC)CN(CCN2CCN(C(=O)c3cc(C(F)(F)F)cc(C(F)(F)F)c3)[C@H](Cc3ccc(C(F)(F)F)cc3)C2)CCO1.Cl.Cl
190 to 200 °C	COc1cc(C(=O)N2CCN(CCN3CCc4ncccc4C3)C[C@H]2Cc2ccc(C(F)(F)F)c(OC)c2)cc(C(F)(F)F)c1.Cl.Cl.Cl
70 to 100 °C	COc1cc(C(=O)N2CCN(Cc3cnn(C)c3)C[C@H]2Cc2ccc(Cl)cc2)cc(C(F)(F)F)c1.Cl
160 to 165 °C	COC[C@@H]1CN(CCN2CCN(C(=O)c3cc(C(F)(F)F)cc(C(F)(F)F)c3)[C@H](Cc3ccc(C)c(N4CCCC4)c3)C2)CCO1.Cl.Cl.Cl
236.8 to 248.5 °C	COc1cc(C[C@@H]2CN(CCN3CCc4ncccc4C3)CCN2C(=O)c2cc(-c3ccncc3)cc(C(F)(F)F)c2)ccc1F.Cl.Cl.Cl.Cl
60 to 100 °C	COc1cc(C(=O)N2CCN(CCCc3cccnc3)C[C@H]2Cc2ccc(Cl)cc2)cc(C(F)(F)F)c1.Cl.Cl
50 to 70 °C	COC[C@@H]1CN(C/C=C/CN2CCN(C(=O)c3cc(C(F)(F)F)cc(C(F)(F)F)c3)[C@H](Cc3ccc(C)c(O)c3)C2)CCO1.Cl.Cl
127 to 135 °C	COc1cc(C[C@@H]2CN(Cc3cnn(C)c3)CCN2C(=O)c2cc(C(F)(F)F)cc(C(F)(F)F)c2)ccc1F.Cl
192 to 208 °C	COc1cc(C(=O)N2CCN(CCN3CCc4ncccc4C3)C[C@H]2Cc2ccc(C)c(O)c2)cc(C(F)(F)F)c1.Cl.Cl.Cl
